The source of these data is ChEMBL document CHEMBL1136950, “Thiopyrophosphoantigens: solid-phase synthesis and in vitro characterization of a new class of Vgamma9 Vdelta2 T cells activators” (J Med Chem, 2009).

The structures appear in SMILES notation. Active and inactive are the calls of the source. No cut-off for these calls is given here.

Series [1] deals with T-cell. The series can be described thus: Immunostimulatory activity in human Vgamma9/Vdelta2 T cells assessed as TNFalpha production after 12 hrs by ELISA. The series is classed as functional, cell-based. Background: In an ELISA, binding on a coated surface is turned into a signal by an enzyme label.
Series [2] can be described thus: Stability in presence of alkaline phosphatase. As to conditions: isolated protein.
Series [3] is described as follows: Stability in presence alkaline phosphatase after 20 mins by HPLC-MS analysis.
Series [4] in a line: Stability in presence alkaline phosphatase after 30 mins by HPLC-MS analysis.
A short description of series [5]: Stability in presence alkaline phosphatase after 60 mins by HPLC-MS analysis.
Series [6] relates to T-cell. The series can be described thus: Immunostimulatory activity in human Vgamma9/Vdelta2 T cells assessed as expansion induces at 20 uM. The series is classed as functional, cell-based.

On to `CC(O)CCSP(=O)(O)OP(=O)(O)O` (stereo not drawn), for which the EC50 in the series with T-cell [1] was 75 µM. Consider `C=C(C)CCSP(=O)([O-])OP(=O)([O-])[O-].[Na+].[Na+].[Na+]`, for which the EC50 in the series with T-cell [1] stood at 3.75 µM. Also, the Stability in series [2] is on record as 94%. Besides, in series [3], the share remaining at 20 min was determined as 48%. In series [4], this compound showed a share remaining at 0.5 h of 54%. In series [5], the share remaining at 1 h came to 27%.

Turning to `O=P(O)(O)OP(=O)(O)SCc1ccccc1`, the EC50 with T-cell [1] was determined as 55 µM.

On to `C=CCCCCCSP(=O)(O)OP(=O)(O)O`, for which the concentration for a half-maximal effect (EC50) in the series on T-cell [1] came out at 6.3 µM. The same measure, in the same setting: next, `O=P(O)(O)OP(=O)(O)SCCOC1CCCCO1` (stereo not drawn): 12 µM.

Consider `C/C(=C\CSP(=O)(O)OP(=O)(O)O)CO`, for which, in the series on T-cell [1], the EC50 came out at 0.0048 µM. In the series with T-cell [6], the outcome was Active. In the case of `O=P(O)(O)OP(=O)(O)SCCCCCl`, in the series with T-cell [1], the EC50 is 100 µM. Same read-out and setting: the figure for `O=P(O)(O)OP(=O)(O)SCCOCCCl` is 0.39 µM; for `O=P(O)(O)OP(=O)(O)SCCCCF` it is 10.8 µM; for `CCSCCCSP(=O)(O)OP(=O)(O)O` it is 0.055 µM.

Turning to `CC1(CCSP(=O)(O)OP(=O)(O)O)COC1`, the EC50 in the series with T-cell [1] came to 14 µM. Still for that read-out and setting: next, `N#CCCCCSP(=O)(O)OP(=O)(O)O`: 1 µM; `O=P(O)(O)OP(=O)(O)SCCC1OCCO1`: 0.056 µM.

A word on the EC50: it is the concentration that produces a half-maximal response. The fraction remaining is the share of the starting amount still present when the sample was taken. A high value points to greater stability.
